Data from patent US9028845B2, “Chimeric immunomodulatory compounds and methods of using the same-IV” (Dynavax Technologies Corporation, priority 2001, dated 2015).

Key:
human PBMCs = test: Human PBMC cytokine response assay (IFN-γ and IFN-α in cell-free medium by ELISA), with or without cPLGA; type: cell-based
mice = test: Serum cytokines (IL-12 p40, IL-6, TNF-α) after subcutaneous injection in mice; type: in vivo; details: 20 ug subcutaneous
Procedure: Blood was collected 2 hours later. For the LPS positive control group, mice were injected intraperitoneally with a 200 ul volume, and blood was collected 1.5 hours later (i.e., at the peak of LPS induced TNF-α activity). The blood was clotted and the serum was prepared and stored at −80° C. until assayed. Serum cytokines were assayed using Biosource cytoscreen kits for TNF-α and Pharmingen antibody pairs for mIL-6 and mIL-12. All samples were assayed in duplicate.

CD19+ B cells = test: Human B cell proliferation assay (3H-thymidine incorporation); details: B cells, 2 μg/ml, Experiment B
mouse lung = test: Induction of immune-associated genes in the mouse lung after intranasal treatment (quantitative PCR); type: in vivo, BALB/c mice; details: 20 ug intranasal, 6 hrs; vs P-7 treated mice
Procedure: The genes evaluated included genes encoding cytokines, chemokines, cell surface molecules, transcription factors, metalloproteases, and other molecules. The study was performed at Northview Pacific Laboratories (Hercules, Calif.) with 6-8 week old female BALB/c mice from Jackson Labs (Bar Harbor, Me.). […] Therefore, at 6 hrs the lungs were harvested and snap-frozen in liquid nitrogen and stored at −80° C. for later use. Total RNA was isolated using RNeasy mini kits (Qiagen Inc., Valencia, Calif.). The RNA samples were DNAse-treated (Roche Diagnostics, Mannheim, Germany) and converted into cDNA using Superscript II Rnase H-Reverse Transcriptase (Invitrogen, Rockville Md.) as described in Scheerens et al., 2001, Eur. J. of Immunology 31:1465-74. The cDNA samples were pooled per group and in each pooled sample the expression of mRNA of 75 genes was measured using real-time quantitative PCR (ABI Prism 5700, Perkin Elmer Applied Biosystems) and syber green (Qiagen Inc.). In addition to the genes of interest, in each sample the mRNA expression of a housekeeping gene was measured (HPRT or ubiquitin). In order to correct for the amount of RNA in each sample, all data were calculated relative to the expression of the housekeeping gene.

[1] = donor 28066, 20 ug/ml, 24 h, + PLGA = premixed with 100 μg/ml cPLGA
[2] = donor 28067, 20 ug/ml, 24 h, + PLGA = premixed with 100 μg/ml cPLGA
[3] = donor 28068, 20 ug/ml, 24 h, + PLGA = premixed with 100 μg/ml cPLGA
[4] = mean of donors 28065-28068, 20 ug/ml, 24 h, + PLGA = premixed with 100 μg/ml cPLGA
[5] = mean of donors 28185-28188, Table 15

“5′-TCGTCG-3′-HEG-5′-AACGTT-3′-HEG-5′-AGATGAT-3′ [Compound C-23]” showed an IFN-α (human PBMCs; Table 13, donor 28156) of 26 pg/mL, an IFN-γ (human PBMCs; Table 13, donor 28156) of 733 pg/mL and an IFN-α (human PBMCs; Table 13, donor 28157) of 235 pg/mL. For the same substance, the IFN-γ (human PBMCs; Table 13, donor 28157) was 576 pg/mL, the IFN-α (human PBMCs; Table 13, donor 28158) was 59 pg/mL and the IFN-γ (human PBMCs; Table 13, donor 28158) was 202 pg/mL. The IFN-α (human PBMCs; Table 13, donor 28159) was 169 pg/mL, the IFN-γ (human PBMCs; Table 13, donor 28159) was 295 pg/mL and the IFN-α mean (human PBMCs; Table 13, mean of donors) was 122 pg/mL. The IFN-γ mean (human PBMCs; Table 13, mean of donors) was 452 pg/mL, the “IFN-γ (pg/ml) 28065” value (human PBMCs; donor 28065 (high background), 20 ug/ml, 24 h, + PLGA = premixed with 100 μg/ml cPLGA, 1000 = outside assay limits) was 438 pg/mL and the “IFN-α (pg/ml) 28065” value (human PBMCs; donor 28065, 20 ug/ml, 24 h, + PLGA = premixed with 100 μg/ml cPLGA) was 52 pg/mL. The “IFN-α (pg/ml) 28066” value (human PBMCs; [1]) was 3 pg/mL, the “IFN-γ (pg/ml) 28066” value (human PBMCs; [1]) was 5 pg/mL and the “IFN-α (pg/ml) 28067” value (human PBMCs; [2]) was 19 pg/mL. The “IFN-γ (pg/ml) 28067” value (human PBMCs; [2]) was 6 pg/mL, the “IFN-α (pg/ml) 28068” value (human PBMCs; [3]) was 137 pg/mL and the “IFN-γ (pg/ml) 28068” value (human PBMCs; [3]) was 238 pg/mL. For the same substance, the “IFN-a” value (human PBMCs; donor 28185, Table 15) was 83 pg/mL, the “IFN-g” value (human PBMCs; donor 28185, Table 15) was 42 pg/mL and the “IFN-a” value (human PBMCs; donor 28186, Table 15) was 27 pg/mL. The “IFN-g” value (human PBMCs; donor 28186, Table 15) was 14 pg/mL, the “IFN-a” value (human PBMCs; donor 28187, Table 15) was 59 pg/mL and the “IFN-g” value (human PBMCs; donor 28187, Table 15) was 29 pg/mL. The “IFN-a” value (human PBMCs; donor 28188, Table 15) was 55 pg/mL, the “IFN-g” value (human PBMCs; donor 28188, Table 15) was 3 pg/mL and the “IFN-α (pg/ml) mean” value (human PBMCs; [4]) was 53 pg/mL. For the same substance, the “IFN-γ (pg/ml) mean” value (human PBMCs; [4]) was 172 pg/mL, the “IFN-a (pg/ml) mean” value (human PBMCs; [5]) was 56 pg/mL and the “IFN-g (pg/ml) mean” value (human PBMCs; [5]) was 22 pg/mL. For the same substance, the “IFN-a (pg/ml) ×2” value (human PBMCs; mean ×2, Table 15) was 112 pg/mL, the “IFN-g (pg/ml) ×4” value (human PBMCs; mean ×4, Table 15) was 88 pg/mL and the “potency in serum cytokine induction compared with other compounds, in words” value (mice) was “more potent than C-9 and P-6”. For the same substance, the “induction of serum IL-12 p40, IL-6 and TNF-α, in words” value (mice; blood 2 hours later) was “induced IL-12 p40, IL-6, and TNF-α”, the cpm1 (CD19+ B cells; donor 121) was 10628 cpm and the cpm2 (CD19+ B cells; donor 121) was 16221 cpm. For the same substance, the cpm3 (CD19+ B cells; donor 121) was 20087 cpm, the mean cpm (CD19+ B cells; donor 121 mean) was 15645 cpm and the cpm1 (CD19+ B cells; donor 194) was 8730 cpm. For the same substance, the cpm2 (CD19+ B cells; donor 194) was 6532 cpm, the cpm3 (CD19+ B cells; donor 194) was 9596 cpm and the mean cpm (CD19+ B cells; donor 194 mean) was 8286 cpm. For the same substance, the mean of both (CD19+ B cells; mean of donors 121 and 194) was 11966 cpm and the “mRNA expression of immune-associated genes in the lung, in words” value (mouse lung) was “potently induce the expression of a variety of genes”.
